# Source: patent publication US9707239B2, “Compounds that modulate oxidative stress” (vTv Therapeutics LLC, priority 2011, dated 2017)
# “Also recorded” adds a separate entry of the source.
# Legend:
# rat HMOX1 mRNA = test: HMOX1 mRNA induction in rat blood after oral gavage; type: in vivo; details: rats, oral gavage 5 or 25 mg/kg, over 5 hours, FIG. 11B
# Experimental: (§1) Next, selected Bach1 modulators were tested for in vivo function. […] Rats were dosed with 5 mg/kg of compound by oral gavage. Compound levels in blood were determined by LC-MS (left panel). […] In a second experiment, Compound 8 activity was tested by determining the amount of HMOX1 mRNA induced in rat blood. Animals were dosed by oral gavage and blood drawn at the indicated times.
# Keap1 = test: HMOX1 induction after Keap1 silencing (shRNA); type: cell-based, human; details: NHLF cells, FIG. 6
# Experimental: Normal human lung fibroblasts were plated in a 12-well tissue culture dish at 16,000 cells/well and allowed to attach overnight. Regular medium was then replaced with 200 μl of fresh growth medium containing 8 μg/ml hexadimethrine bromide (polybrene). Lentiviral transduction particles were then added in the following amounts: Control shRNA (1.1×10^7 TU/ml, Sigma, cat# SHC002V), 15 μl for an MOI of 10; KEAP-1 shRNA (6.3×10^6 TU/ml, Sigma, cat# SHCLNV-TRCN0000046092), 63 μl for an MOI of 20. After 4 hours in the cell culture incubator, another 200 μl of growth medium was added on top of the original volume. Cells were replenished the next day with fresh complete growth medium and were allowed to recover for 24 hours, after which selection medium was applied (complete medium with 1 μg/ml puromycin).
# Another method of testing the role of the Nrf2 regulatory pathway on compound activity is to determine the effect of silencing Keap1 on HMOX1 gene expression. It is known that deleting Keap1 will result in the induction of Nrf2 dependent genes but not, to any significant degree, HMOX1. The proposed explanation for this observation is that HMOX1 requires the concomitant derepression of Bach1 activity and that this event is more dependent on active processes (e.g., heme binding, changes in redox potential of the cell, phosphorylation of Bach1, etc.). We therefore tested the ability of Compound 13 and tool compounds to induce HMOX1 in the presence of silencing of Keap1 in normal human lung fibroblasts.
# Normal human lung fibroblasts were tested with DMSO, CoPP, Compound 13, and two derivatives including Compound 4 and Compound 8. An electrophile, Compound 1, was also included in the test set. […] On the other hand, induction of HMOX1 by the electrophile Compound 1 was inhibited.
# [1] = Compound levels in rat blood after oral gavage (LC-MS); type: in vivo; details: rats
# Experimental: as §1
# GADD45A = test: mRNA expression (Quantigene Plex) in NHLF cells: GADD45A; type: cell-based, human; details: mRNA normalized to GAPDH, above DMSO treated cells
# Experimental: (§2) Secondary growth of NHLF cells were used for all assays. Cell were thawed and then placed into culture in T225 flasks. The cells were grown to 80% confluency and harvested by washing once with HEPES buffered saline solution and then trypsinizing. Equal numbers (7×10^3 cells per well) of NHLF cells were plated in 96 well tissue culture plates (Corning). Cells were incubated overnight in FGM-2 medium prior to exposure to compound. Cells were treated with either DMSO or a compound as described below for 6 h. Preparation of cell lysates was carried out according to instructions using the Quantigene Reagent system 2.0 protocol (Panomics). mRNA induction was detected from cell lysate using the Quantigene Plex 2.0 Assay Kit (Panomics) on the Luminex platform (BIO-RAD). Expression of GAPDH mRNA was used as the internal control for the Quantigen Plex 2.0 Assay. The data in Tables 5 and 6 represents the fold change of target mRNA expression, normalized to control values, above DMSO treated cells.
# ATF4 = test: mRNA expression (Quantigene Plex) in NHLF cells: ATF4; type: cell-based, human; details: Table 5, 6 h, mRNA normalized to GAPDH, above DMSO treated cells
# Experimental: as §2
# HSPA6 = test: mRNA expression (Quantigene Plex) in NHLF cells: HSPA6; type: cell-based, human; details: mRNA normalized to GAPDH, above DMSO treated cells
# Experimental: as §2
# TXNRD1 = test: mRNA expression (Quantigene Plex) in NHLF cells: TXNRD1; type: cell-based, human; details: mRNA normalized to GAPDH, above DMSO treated cells
# Experimental: as §2
# NHLF cells [2] = test: Cytoprotection of cisplatin (CDDP)-treated NHLF cells (propidium iodide staining); type: cell-based; details: NHLF cells, compound 24 hours prior to cisplatin exposure, FIG. 8
# Experimental: A key outcome of Bach1 derepression and Nrf2 activation are the induction of cytoprotective genes. A method to test such cytoprotection is to assess the ability of a compound to protect normal human cells such as lung fibroblasts from toxicity due to cisplatin exposure. A model of cellular cytoprotection was established whereby normal human lung fibroblasts were treated with Bach1 modulators and then subsequently exposed to cisplatin. NHLF cells are very sensitive to cisplatin exposure; following a dose of 200 uM cisplatin, >90% of NHLF cells are propidium iodide positive, a measure of cell death.
# ICAM = test: mRNA expression (Quantigene Plex) in NHLF cells: ICAM; type: cell-based, human; details: mRNA normalized to GAPDH, above DMSO treated cells
# Experimental: as §2
# HMOX1 = test: mRNA expression (Quantigene Plex) in NHLF cells: HMOX1; type: cell-based, human; details: mRNA normalized to GAPDH, above DMSO treated cells
# Experimental: as §2
# NHLF cells [3] = test: ROS measurements (H2DCF-DA imaging); type: cell-based, human; details: 1 hr, cell-by-cell imaging, FIG. 3A/3B
# Experimental: Secondary growth of NHLF cells were used for all assays. Cells were cultured as above. Cells were plated into 384-well BD-Optilux Plates at 2,000 cells/well and cultured overnight at 37° C. and 5% CO2. The following day, cell were washed and 2,7-dihydrodichlorofluorescin diacetate (H2DCF-DA), 10 μM ferric ammonium citrate (FAC), and Hoechst stain were added to cells for 30 min. The cells were washed once with PBS to remove any H2DCF-DA not taken up by cells. Test compounds were prepared in FBM-2 media at the desired concentrations. The plates and stain-treated cells were incubated with test compounds for 1 hr at 37° C. and 5% CO2. Following the incubation period, ROS generation was determined by imaging the cells on a GE INcell 1000 imager (Hoechst Ex. 360 Em. 535; H2DCF-DA 488 Ex. 480 Em. 535). ROS levels were determined and quantified using GE IN Cell Analyzer Software.
# In addition to gene profiling, the requirement for ROS generation or chemical reactivity was tested. ROS generation was measured using an automated imaging technique. Compound 13 as well as two other compounds that were found in the screening set were tested in this experiment. Untreated NHLF cells, NHLF cells treated with the HMOX1 inducer CoPP (a negative control), and NHLF cells treated with curcumin or celestrol (positive controls) were included as controls. […] Further experiments were also conducted on chemical derivatives of Compound 13. In those experiments, all compounds tested were found not to induce an elevation of ROS levels in the cell (FIG. 3B). Thus, Compound 13 and related compounds represent a class of agents that elevate HMOX1 production without elevating ROS production.
# human Bach1 = test: MARE controlled luciferase reporter gene assay in HepG2 cells with or without Bach1 expression; type: cell-based; details: transient transfection, with or without Bach1 expressing plasmid, FIG. 7
# Experimental: The ability of Compound 13 to act in a manner similar to CoPP provides evidence for the hypothesis that Bach1 activity is being modulated by the compounds. […] To that end, expression vectors were prepared which contained the HMOX1 mARE promoter element recognized by both Bach1 and Nrf2. This element was placed in control of the reporter gene luciferase. Under conditions of transient transfection of HepG2 cells, the reporter has a low level of basal activity due to the relative ratio of Bach1 and Nrf2 found in the cell. Co-transfection with a Bach1 expressing plasmid leads to repression of luciferase activity. Therefore, one can test whether the compounds can increase the level of luciferase in the cells, thus overcoming Bach1 repression. […] Thus, the tested compound is able to overcome suppression by additional Bach1.
# NQO1 = test: mRNA expression (Quantigene Plex) in NHLF cells: NQO1; type: cell-based, human; details: mRNA normalized to GAPDH, above DMSO treated cells
# Experimental: as §2
Structure (SMILES),HMOX1 mRNA induced in rat blood (rat HMOX1 mRNA),HMOX1 induction in the presence of Keap1 silencing (Keap1),"compound levels in blood ([1]; 5 mg/kg (legend: 5 or 25 mg/kg) oral gavage, LC-MS, FIG. 11A)","oral bioavailability ([1]; oral gavage, FIG. 11)","GADD45A (fold induction) (GADD45A; Table 5, 6 h)","GADD45A (fold induction) (GADD45A; Table 6, 6 h)",ATF4 (fold induction) (ATF4),"HSPA6 (fold induction) (HSPA6; Table 5, 6 h)","HSPA6 (fold induction) (HSPA6; Table 6, 6 h)","TXNRD1 (fold induction) (TXNRD1; Table 5, 6 h)","TXNRD1 (fold induction) (TXNRD1; Table 6, 6 h)",protection against cisplatin toxicity (NHLF cells [2]),"ICAM (fold induction) (ICAM; Table 5, 6 h)","ICAM1 (fold induction) (ICAM; Table 6, 6 h)","HMOX1 (fold induction) (HMOX1; Table 5, 6 h)","HMOX1 (fold induction) (HMOX1; Table 6, 6 h)",ROS production (in words) (NHLF cells [3]),luciferase activity of HMOX1 mARE reporter (human Bach1),"NQO1 (fold induction) (NQO1; Table 5, 6 h)","NQO1 (fold induction) (NQO1; Table 6, 6 h)"
"COCCNC(=O)c1ccc2c(c1)nc(Nc1nc3ccc(OC(F)(F)F)cc3s1)n2C [Compound 8, 1-Methyl-2-(6-trifluoromethoxy-benzothiazol-2-ylamino)-1H-benzoimidazole-5-carboxylic acid (2-methoxy-ethyl)-amide]",able to induce HMOX1 mRNA in rat blood in a time and dose-dependent manner; also recorded: dose-dependent induction of rat HMOX1 mRNA in blood samples,unaffected in their ability to induce HMOX1 in the presence of Keap1 silencing; also recorded: behaves similarly to CoPP induction,micromolar levels; also recorded: present in blood sample following oral dosing,orally bioavailable,–,–,–,–,–,–,–,–,–,–,–,–,–,–,–,–
"C=Cc1c(C)c2cc3[nH]c(cc4nc(cc5nc(cc1[nH]2)C(C)=C5CCC(=O)[O-])C(CCC(=O)[O-])=C4C)c(C)c3C=C.[Co+2] [CoPP, Cobalt protoporphyrin IX, reference compound]",–,unaffected in their ability to induce HMOX1 in the presence of Keap1 silencing,–,–,1.02,1.18,0.85,0.9,0.86,2.7,2.39,protect the cells from CDDP-mediated toxicity,1.1,0.56,48,49.64,did not,able to induce luciferase activity in the presence or absence of Bach1 protein expression; also recorded: can overcome this repression,3.5,4.22
